pIC50: −log10 of the molar value. Read-outs that look alike come from different tables or passages of the source.
Tests used:
Assay in all cases: 3H-TdR (3H-thymidine) incorporation assay at 72 hr
MCF-7 = assay type: cell-based, Human; settings: 3H-TdR incorporation at 72 hr
SF-268 = assay type: cell-based, Human; settings: 3H-TdR incorporation at 72 hr
CCRF-CEM = assay type: cell-based; settings: 3H-TdR incorporation at 72 hr
Procedure: (§1) Table of IC50 Values (μM) for Controls
(§2) Exposition of 24 hr to drug, wash, incubated for another 48 hr (total of 72 hr assay)
(§3) (3H-Thymidine Incorporation Assay)

CEM/dCK- = assay type: cell-based; settings: for pIC50: Homo sapiens, CCRF-CEM, read-out: IC50 CEM/dCK- 24 h, 24 h drug exposure, wash, another 48 hr, deoxycytidine kinase-deficient CCRF-CEM; for Factor* (Resistance Factor = Ratio of dCK- on Wild-type CCRF-CEM): ratio of IC50 CEM/dCK- to CCRF-CEM, 24 h
Procedure: as §1, §2, §3

H-460 = assay type: cell-based, Human; settings: 3H-TdR incorporation at 72 hr
[1] = Homo sapiens, MCF7, read-out: IC50 MCF-7 24 h, 24 h drug exposure, wash, another 48 hr
[2] = Homo sapiens, SF-268, read-out: IC50 SF-268 24 h, 24 h drug exposure, wash, another 48 hr
[3] = Homo sapiens, CCRF-CEM, read-out: IC50 CCRF-CEM 24 h, 24 h drug exposure, wash, another 48 hr
[4] = Homo sapiens, NCI-H460, read-out: IC50 H-460 24 h, 24 h drug exposure, wash, another 48 hr

COC(=O)CCCC(=O)Nc1ccn([C@@H]2CO[C@H](COC(=O)CCCC(=O)OC)O2)c(=O)n1 [Compound 80, PENTANEDIOIC ACID 4-[4- (4-METHOXYCARBONYL- BUTYRYLAMINO)-2-OXO- 2#H!-PYRIMIDIN-1-YL]- [1,3]DIOXOLAN-2- YLMETHYL ESTER METHYL ESTER] was tested. Which pIC50 (MCF-7; [1]) did it give?
Its pIC50 is 6.17.

And the pIC50 (SF-268; [2])?
Its pIC50 is 5.46.

And the pIC50 (CCRF-CEM; [3])?
The pIC50 was 6.34.

What about the pIC50 (CEM/dCK-) of the same compound?
The pIC50 was under 4.00.

What about the “Factor* (Resistance Factor = Ratio of dCK- on Wild-type CCRF-CEM)” value (CEM/dCK-) of the same compound?
The value was 217.

And the pIC50 (H-460; [4])?
Its pIC50 is 5.74.

How did the pIC50 (MCF-7; [1]) turn out when COC(=O)CCCC(=O)Nc1ccn([C@@H]2CO[C@H](CO)O2)c(=O)n1 [Compound 81, 4-[1-(2-HYDROXYMETHYL- [1,3]DIOXOLAN-4-YL)-2- OXO-1,2-DIHYDRO- PYRIMIDIN-4- YLCARBAMOYL]-BUTYRIC ACID METHYL ESTER] was run?
The pIC50 was 5.66.

And the pIC50 (SF-268; [2])?
The pIC50 was 5.10.

And the pIC50 (CCRF-CEM; [3])?
Its pIC50 is 5.92.

What about the pIC50 (CEM/dCK-) of the same compound?
The pIC50 was under 4.00.

What about the “Factor* (Resistance Factor = Ratio of dCK- on Wild-type CCRF-CEM)” value (CEM/dCK-) of the same compound?
Its value is 83.

And the pIC50 (H-460; [4])?
Its pIC50 is 5.51.

How did the pIC50 (MCF-7; [1]) turn out when COC(=O)CCCC(=O)OC[C@H]1OC[C@@H](n2ccc(N)nc2=O)O1 [Compound 82, PENTANEDIOIC ACID 4-(4- AMINO-2-OXO-2#H!- PYRIMIDIN-1-YL)- [1,3]DIOXOLAN-2- YLMETHYL ESTER METHYL ESTER] was run?
Its pIC50 is 6.92.

What about the pIC50 (SF-268; [2]) of the same compound?
The pIC50 was 6.52.

And the pIC50 (CCRF-CEM; [3])?
Its pIC50 is 7.28.

What about the pIC50 (CEM/dCK-) of the same compound?
The pIC50 was under 4.00.

What about the “Factor* (Resistance Factor = Ratio of dCK- on Wild-type CCRF-CEM)” value (CEM/dCK-) of the same compound?
Its value is 1,887.

And the pIC50 (H-460; [4])?
Its pIC50 is 6.77.

How did the pIC50 (MCF-7; read-out: IC50 MCF-7 24 h, 24 h drug exposure, wash, another 48 hr) turn out when Nc1ccn([C@@H]2CO[C@H](COC(=O)CCCCCNCc3ccccc3)O2)c(=O)n1 [Compound 84, 6-Benzylamino-hexanoic acid 4-(4-amino-2-oxo-2H-pyrimidin-1-yl)-[1,3]dioxolan-2-ylmethyl ester] was run?
Its pIC50 is 8.03.

And the pIC50 (SF-268; read-out: IC50 SF-268 24 h, 24 h drug exposure, wash, another 48 hr)?
The pIC50 was 6.44.

What about the pIC50 (CCRF-CEM; read-out: IC50 CCRF-CEM 24 h, 24 h drug exposure, wash, another 48 hr) of the same compound?
Its pIC50 is 7.92.

And the “Factor* (Resistance Factor = Ratio of dCK- on Wild-type CCRF-CEM)” value (CEM/dCK-)?
The value was 5,000.

What about the pIC50 (H-460; read-out: IC50 H-460 24 h, 24 h drug exposure, wash, another 48 hr) of the same compound?
The pIC50 was 7.85.

How did the pIC50 (MCF-7; [1]) turn out when Nc1ccn([C@@H]2CO[C@H](CO[C@@H]3O[C@H](CO)[C@@H](O)[C@H]3O)O2)c(=O)n1.O=C(O)C(F)(F)F [Compound 85, 4-AMINO-1-[2-(3,4- DIHYDROXY-5- HYDROXYMETHYL- TETRAHYDROFURAN-2- YLOXYMETHYL)- [1,3]DIOXOLAN-4-YL]- 1HPYIMIDIN-2-ONE, TRIFLUOROACETIC ACID SALT] was run?
Its pIC50 is 5.17.

What about the pIC50 (SF-268; [2]) of the same compound?
The pIC50 was 4.80.

What about the pIC50 (CCRF-CEM; [3]) of the same compound?
The pIC50 was 5.59.

What about the pIC50 (CEM/dCK-) of the same compound?
Its pIC50 is under 4.00.

What about the “Factor* (Resistance Factor = Ratio of dCK- on Wild-type CCRF-CEM)” value (CEM/dCK-) of the same compound?
Its value is 38.

And the pIC50 (H-460; [4])?
Its pIC50 is 6.16.

CCCCC(C)C(=O)OC[C@H]1OC[C@@H](n2ccc(N)nc2=O)O1.Cl (stereo partly drawn) [Compound 86, (2S,4S)-2-(2″-METHYL- HEXANOICOXYMETHYL)-4- CYTOSIN-1′-YL-1,3- DIOXOLANE HYDROCHLORIDE] was tested. Which pIC50 (MCF-7; [1]) did it give?
The pIC50 was 8.72.

What about the pIC50 (SF-268; [2]) of the same compound?
Its pIC50 is 7.89.

And the pIC50 (CCRF-CEM; [3])?
Its pIC50 is 8.96.

What about the pIC50 (CEM/dCK-) of the same compound?
The pIC50 was 5.40.

What about the “Factor* (Resistance Factor = Ratio of dCK- on Wild-type CCRF-CEM)” value (CEM/dCK-) of the same compound?
The value was 3,636.

What about the pIC50 (H-460; [4]) of the same compound?
Its pIC50 is 8.70.

With Cl.Nc1ccn([C@@H]2CO[C@H](COC(=O)Oc3ccc([N+](=O)[O-])cc3)O2)c(=O)n1 [Compound 88, 1-[2-(4-NITRO- PHENOXYCARBONYLOXYMETHY L)-[1,3]DIOXOLAN-4-YL]- 2-OXO-1,2-DIHYDRO- PYRIMIDIN-4-YL- AMMONIUM; CHLORIDE] as the compound, how does the pIC50 (MCF-7; [1]) read?
Its pIC50 is 6.72.

What about the pIC50 (SF-268; [2]) of the same compound?
Its pIC50 is 6.21.

And the pIC50 (CCRF-CEM; [3])?
Its pIC50 is 7.06.

And the pIC50 (CEM/dCK-)?
Its pIC50 is 4.09.

And the “Factor* (Resistance Factor = Ratio of dCK- on Wild-type CCRF-CEM)” value (CEM/dCK-)?
The value was 931.

What about the pIC50 (H-460; [4]) of the same compound?
The pIC50 was 6.85.

What does the source list for O=C(O)C(F)(F)F.O=c1nc(NC/C=C/c2ccccc2)ccn1[C@@H]1CO[C@H](CO)O1 [Compound 89, 1-(2-HYDROXYMETHYL- [1,3]DIOXOLAN-4-YL)-4- (3-CINNAMYL)-1H- PYRIMIDIN-2-ONE TRIFLUORO-ACETATE SALT]?
pIC50 (MCF-7; [1]): 6.66; pIC50 (SF-268; [2]): 4.96; pIC50 (CCRF-CEM; [3]): 5.60; pIC50 (CEM/dCK-): < 4.00; Factor* (Resistance Factor = Ratio of dCK- on Wild-type CCRF-CEM) (CEM/dCK-): 40; pIC50 (H-460; [4]): 5.42

How did the pIC50 (MCF-7; [1]) turn out when Nc1ccn([C@@H]2CO[C@H](COC/C=C/c3ccccc3)O2)c(=O)n1.O=C(O)C(F)(F)F [Compound 90, 4-AMINO-1-[2-(3- CINNAMYLOXYMETHYL)- [1,3]DIOXOLAN-4-YL]-1H- PYRIMIDIN-2-ONE TRIFLUOROACETATE SALT] was run?
The pIC50 was 4.21.

What about the pIC50 (SF-268; [2]) of the same compound?
Its pIC50 is under 4.00.

And the pIC50 (CCRF-CEM; [3])?
The pIC50 was 4.19.

And the pIC50 (CEM/dCK-)?
Its pIC50 is under 4.00.

What about the “Factor* (Resistance Factor = Ratio of dCK- on Wild-type CCRF-CEM)” value (CEM/dCK-) of the same compound?
The value was 1.5.

What about the pIC50 (H-460; [4]) of the same compound?
Its pIC50 is 4.02.

Which results are given for CC(OC[C@H]1OC[C@@H](n2ccc(N)nc2=O)O1)OC1CCCCC1 (some centres unmarked) [Compound 92, 4-AMINO-1-[2-(1- CYCLOHEXYLOXY- ETHOXYMETHYL)- [1,3]DIOXOLAN-4-YL]-1H- PYRIMIDIN-2-ONE]?
pIC50 (MCF-7; [1]): 5.80; pIC50 (SF-268; [2]): 5.38; pIC50 (CCRF-CEM; [3]): 5.89; pIC50 (CEM/dCK-): < 4.00; Factor* (Resistance Factor = Ratio of dCK- on Wild-type CCRF-CEM) (CEM/dCK-): 77; pIC50 (H-460; [4]): 5.68

Reference: patent US20030013660A1, “Dioxolane analogs for improved inter-cellular delivery” (Shire BioChem Inc., priority 2000, published 2003)
